Structures are written as SMILES. pIC50: −log10 of the molar value.

Factor D, sequence (P00746 26-253): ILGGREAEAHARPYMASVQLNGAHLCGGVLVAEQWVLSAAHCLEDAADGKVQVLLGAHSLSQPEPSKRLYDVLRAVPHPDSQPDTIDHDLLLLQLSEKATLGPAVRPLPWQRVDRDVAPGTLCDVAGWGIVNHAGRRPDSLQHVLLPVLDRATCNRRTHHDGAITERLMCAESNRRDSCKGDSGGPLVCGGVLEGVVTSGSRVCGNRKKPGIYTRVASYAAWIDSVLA

The target of the test is Factor D (Homo sapiens (Human), UniProt P00746). The test can be described thus: Factor D esterolytic assay (Z-Lys-SBzl substrate, DTNB, 405 nm). In kind it is biochemical. The note with it: Z-Lys-SBzl 1.29 mM, pH 7.5, 10% DMSO, tested a minimum of three times, read-out: Measured Ki (IC50) Value for Compounds: IC50. In short, it runs like this:
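Human Factor D ([…]) with 1.29 mM Z-Lys-SBzl in 100 mM HEPES, 500 mM NaCl, pH 7.5, 10% DMSO; substrate added immediately or after room-temperature preincubation. Released thiol reacted with DTNB, rate followed at 405 nm for 600 sec, 690 nm background subtracted. IC50 from percent inhibition versus uninhibited rate, n≥3.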
Consider `NCc1cccc(-c2cc(COc3cc(F)ccc3CC(=O)O)c(F)c3ccoc23)c1` [Compound 484c, 2-(2-((7-(3-(aminomethyl)phenyl)-4-fluorobenzofuran-5-yl)methoxy)-4-fluorophenyl)acetic acid], for which the pIC50 was > 6.00.

For `NCc1cccc(-c2cc(COc3cc(F)ccc3CC(=O)O)c(F)c3ccoc23)c1F` [Compound 485b, 2-(2-((7-(3-(aminomethyl)-2-fluorophenyl)-4-fluorobenzofuran-5-yl)methoxy)-4-fluorophenyl)acetic acid], the pIC50 is > 6.00.

On to `NCc1cccc(-c2cc(COc3cc(F)ccc3CC(=O)O)cc3c(C(F)(F)F)coc23)c1` [Compound 486c, 2-(2-((7-(3-(aminomethyl)phenyl)-3-(trifluoromethyl)benzofuran-5-yl)methoxy)-4-fluorophenyl)acetic acid], for which the pIC50 was > 6.00.

Consider `NCc1cccc(-c2cc(COc3cc(F)ccc3CC(=O)O)cc3c(C(F)(F)F)coc23)c1F` [Compound 487b, 2-(2-((7-(3-(aminomethyl)-2-fluorophenyl)-3-(trifluoromethyl)benzofuran-5-yl)methoxy)-4-fluorophenyl)acetic acid], for which the pIC50 is > 6.00.

As for `COc1ccc(CC(=O)O)c(OCc2cc(-c3cccc(CN)c3)c3occ(C(F)(F)F)c3c2)c1` [Compound 488c, 2-(2-((7-(3-(aminomethyl)phenyl)-3-(trifluoromethyl)benzofuran-5-yl)methoxy)-4-methoxyphenyl)acetic acid], the pIC50 was > 6.00.

Turning to `COc1ccc(CC(=O)O)c(OCc2cc(-c3cccc(CN)c3F)c3occ(C(F)(F)F)c3c2)c1` [Compound 489b, 2-(2-((7-(3-(aminomethyl)-2-fluorophenyl)-3-(trifluoromethyl)benzofuran-5-yl)methoxy)-4-methoxyphenyl)acetic acid], the pIC50 is > 6.00.

As to `NCc1nccc(-c2cc(COc3cc(F)ccc3CC(=O)O)cc3c(C(F)(F)F)coc23)c1F` [Compound 490c, 2-(2-((7-(2-(aminomethyl)-3-fluoropyridin-4-yl)-3-(trifluoromethyl)benzofuran-5-yl)methoxy)-4-fluorophenyl)acetic acid], the pIC50 is > 6.00.

Turning to `NCc1cc(-c2cc(COc3cc(F)ccc3CC(=O)O)cc3c(C(F)(F)F)coc23)ccn1` [Compound 491b, 2-(2-((7-(2-(aminomethyl)pyridin-4-yl)-3-(trifluoromethyl)benzofuran-5-yl)methoxy)-4-fluorophenyl)acetic acid], the pIC50 was > 6.00.

On to `COc1ccc(CC(=O)O)c(OCc2cc(-c3ccnc(CN)c3)c3oc(F)cc3c2)c1` [Compound 492b, 2-(2-((7-(2-(aminomethyl)pyridin-4-yl)-2-fluorobenzofuran-5-yl)methoxy)-4-methoxyphenyl)acetic acid], for which the pIC50 is > 6.00.

Consider `COc1ccc(OCc2cc(-c3cccc(CN)c3)c3ccn(C(C)C)c3c2)c(CC(=O)O)c1` [Compound 493b, 2-(2-((4-(3-(aminomethyl)phenyl)-1-isopropyl-1H-indol-6-yl)methoxy)-5-methoxyphenyl)acetic acid], for which the pIC50 is > 6.00.

For `CC(C)n1ccc2c(-c3cccc(CN)c3F)cc(COc3ccc(F)cc3CC(=O)O)cc21` [Compound 494b, 2-(2-((4-(3-(aminomethyl)-2-fluorophenyl)-1-isopropyl-1H-indol-6-yl)methoxy)-5-fluorophenyl)acetic acid], the pIC50 was > 6.00.

As for `CC(C)n1ccc2c(-c3ccnc(CN)c3F)cc(COc3cc(F)ccc3CC(=O)O)cc21` [Compound 495d, 2-(2-((4-(2-(aminomethyl)-3-fluoropyridin-4-yl)-1-isopropyl-1H-indol-6-yl)methoxy)-4-fluorophenyl)acetic acid], the pIC50 was > 6.00.

Regarding `CC(C)n1ccc2c(-c3ccnc(CN)c3)cc(COc3cc(F)ccc3CC(=O)O)cc21` [Compound 496c, 2-(2-((4-(2-(aminomethyl)pyridin-4-yl)-1-isopropyl-1H-indol-6-yl)methoxy)-4-fluorophenyl)acetic acid], the pIC50 is > 6.00.

On to `CC(C)n1ccc2c(-c3ccnc(CN)c3)cc(COc3ccc(F)cc3CC(=O)O)cc21` [Compound 497d, 2-(2-((4-(2-(aminomethyl)pyridin-4-yl)-1-isopropyl-1H-indol-6-yl)methoxy)-5-fluorophenyl)acetic acid], for which the pIC50 is > 6.00.

Consider `COc1ccc(CC(=O)O)c(OCc2cc(-c3ccnc(CN)c3F)c3occ(C(F)(F)F)c3c2)c1` [Compound 498c, 2-(2-((7-(2-(aminomethyl)-3-fluoropyridin-4-yl)-3-(trifluoromethyl)benzofuran-5-yl)methoxy)-4-methoxyphenyl)acetic acid], for which the pIC50 is > 6.00.

For `COc1ccc(CC(=O)O)c(OCc2cc(-c3ccnc(CN)c3)c3occ(C(F)(F)F)c3c2)c1` [Compound 499b, 2-(2-((7-(2-(aminomethyl)pyridin-4-yl)-3-(trifluoromethyl)benzofuran-5-yl)methoxy)-4-methoxyphenyl)acetic acid], the pIC50 was > 6.00.

For `NCc1cccc(-c2cc(COc3ccc(F)cc3CC(=O)O)cc3c(C(F)(F)F)coc23)c1` [Compound 500c, 2-(2-((7-(3-(aminomethyl)phenyl)-3-(trifluoromethyl)benzofuran-5-yl)methoxy)-5-fluorophenyl)acetic acid], the negative logarithm of the IC50 (pIC50) is > 6.00.

Regarding `NCc1cccc(-c2cc(COc3ccccc3CC(=O)O)cc3[nH]c(C(F)(F)F)cc23)c1F` [Compound 501f, 2-(2-((4-(3-(aminomethyl)-2-fluorophenyl)-2-(trifluoromethyl)-1H-indol-6-yl)methoxy)phenyl)acetic acid], the pIC50 is > 6.00.

As to `NCc1cccc(-c2cc(COc3c(F)cccc3CC(=O)O)cc3ccoc23)c1F` [Compound 502c, 2-(2-((7-(3-(aminomethyl)-2-fluorophenyl)benzofuran-5-yl)methoxy)-3-fluorophenyl)acetic acid], the pIC50 was > 6.00.

Consider `NCc1cc(-c2cc(COc3cc(F)ccc3CC(=O)O)c(F)c3ccoc23)ccn1` [Compound 503c, 2-(2-((7-(2-(aminomethyl)pyridin-4-yl)-4-fluorobenzofuran-5-yl)methoxy)-4-fluorophenyl)acetic acid], for which the pIC50 is > 6.00.

As to `NCc1cc(-c2cc(COc3c(F)cccc3CC(=O)O)cc3ccoc23)ccn1` [Compound 504c, 2-(2-((7-(2-(aminomethyl)pyridin-4-yl)benzofuran-5-yl)methoxy)-3-fluorophenyl)acetic acid], the pIC50 was > 6.00.

Turning to `CC(=O)c1ccc(CC(=O)O)c(OCc2cc(-c3ccnc(CN)c3F)c3occc3c2)c1` [Compound 505d, 2-(4-acetyl-2-((7-(2-(aminomethyl)-3-fluoropyridin-4-yl)benzofuran-5-yl)methoxy)phenyl)acetic acid], the pIC50 is > 6.00.

In the case of `CC(=O)c1ccc(CC(=O)O)c(OCc2cc(-c3cccc(CN)c3)c3occ(C(F)(F)F)c3c2)c1` [Compound 506e, 2-(4-acetyl-2-((7-(3-(aminomethyl)phenyl)-3-(trifluoromethyl)benzofuran-5-yl)methoxy)phenyl)acetic acid], the pIC50 was > 6.00.

Turning to `NCc1cccc(-c2cc(NC(=O)[C@@H]3CCCN3C(=O)NCc3cccc(Cl)c3F)cc3ccoc23)c1` [Compound 507f, (S)—N2-(7-(3-(aminomethyl)phenyl)benzofuran-5-yl)-N1-(3-chloro-2-fluorobenzyl)pyrrolidine-1,2-dicarboxamide], the pIC50 is 5.00 to 6.00.

For `COc1cccc(CC(=O)O)c1OCc1cc(-c2cccc(CN)c2F)c2occc2c1` [Compound 508b, 2-(2-((7-(3-(aminomethyl)-2-fluorophenyl)benzofuran-5-yl)methoxy)-3-methoxyphenyl)acetic acid], the pIC50 is > 6.00.

On to `NCc1nccc(-c2cc(COc3cc(F)ccc3CC(=O)O)c(F)c3ccoc23)c1F` [Compound 509d, 2-(2-((7-(2-(aminomethyl)-3-fluoropyridin-4-yl)-4-fluorobenzofuran-5-yl)methoxy)-4-fluorophenyl)acetic acid], for which the pIC50 was > 6.00.

For `NCc1nccc(-c2cc(COc3c(F)cccc3CC(=O)O)cc3ccoc23)c1F` [Compound 510d, 2-(2-((7-(2-(aminomethyl)-3-fluoropyridin-4-yl)benzofuran-5-yl)methoxy)-3-fluorophenyl)acetic acid], the pIC50 was > 6.00.

Consider `CC(=O)c1ccc(CC(=O)O)c(OCc2cc(-c3ccnc(CN)c3)c3occc3c2)c1` [Compound 511e, 2-(4-acetyl-2-((7-(2-(aminomethyl)pyridin-4-yl)benzofuran-5-yl)methoxy)phenyl)acetic acid], for which the pIC50 is > 6.00.

As for `COc1cccc(CC(=O)O)c1OCc1cc(-c2ccnc(CN)c2)c2occc2c1` [Compound 512d, 2-(2-((7-(2-(aminomethyl)pyridin-4-yl)benzofuran-5-yl)methoxy)-3-methoxyphenyl)acetic acid], the pIC50 is > 6.00.

In the case of `CC(C)n1ccc2c(-c3ccnc(CN)c3F)cc(COc3ccc(F)cc3CC(=O)O)cc21` [Compound 513c, 2-(2-((4-(2-(aminomethyl)-3-fluoropyridin-4-yl)-1-isopropyl-1H-indol-6-yl)methoxy)-5-fluorophenyl)acetic acid], the pIC50 is > 6.00.

For the molecule `COCc1cc2cc(COc3cc(F)ccc3CC(=O)O)cc(-c3ccnc(CN)c3F)c2o1` [Compound 514d, 2-(2-((7-(2-(aminomethyl)-3-fluoropyridin-4-yl)-2-(methoxymethyl)benzofuran-5-yl)methoxy)-4-fluorophenyl)acetic acid], the pIC50 was > 6.00.

In the case of `COCc1cc2cc(COc3cc(F)ccc3CC(=O)O)cc(-c3ccnc(CN)c3)c2o1` [Compound 515c, 2-(2-((7-(2-(aminomethyl)pyridin-4-yl)-2-(methoxymethyl)benzofuran-5-yl)methoxy)-4-fluorophenyl)acetic acid], the pIC50 is > 6.00.

Values taken from patent US11370774B2, “Substituted benzofuran, benzopyrrole, benzothiophene, and structurally related complement inhibitors” (BioCryst Pharmaceuticals, Inc., priority 2018, dated 2022).
